This passage reports IC50 results from ChEMBL document CHEMBL5390265, “Design, Synthesis, and Pharmacological Evaluation of Multisubstituted Pyrido[4,3-d]pyrimidine Analogues Bearing Deuterated Methylene Linkers as Potent KRASG12D Inhibitors” (J Med Chem, 2023).

What all share (type): functional, cell-based
One assay has as its system NCI-H1299. The assay is described as follows: Antiproliferative activity against human NCI-H1299 cells harboring KRAS wild type assessed as inhibition of cell growth incubated for 5 days by crystal violet staining analysis. The conditions noted are these: NCI-H1299, 120 h.
A further assay deals with AGS. In words: Antiproliferative activity against human AGS cells harboring […] assessed as inhibition of cell growth incubated for 5 days by crystal violet staining analysis.
A further assay relates to A549. In words: Antiproliferative activity against human A549 cells harboring […] assessed as inhibition of cell growth incubated for 5 days by crystal violet staining analysis.
A further assay has as its system ASPC1. In words: Antiproliferative activity against human ASPC1 cells harboring […] assessed as inhibition of cell growth incubated for 5 days by crystal violet staining analysis.

In the case of `C#Cc1c(F)ccc2cc(O)cc(-c3ncc4c(N5C[C@H]6CC[C@@H](C5)N6)nc(OC[C@]56CCCN5[C@@H](COC(=O)NCC57C[C@H]8C[C@@H](C5)C[C@@H](C7)C8)CC6)nc4c3F)c12` (mixture of isomers), the IC50 (usually the point on the concentration scale where inhibition reaches its midpoint) was more than 5 µM in the assay with NCI-H1299; 0.0126 µM with AGS (Homo sapiens, AGS, 120 h); more than 5 µM with A549 (Homo sapiens, A549, 120 h); 0.0422 µM with ASPC1 (Homo sapiens, ASPC1, 120 h).
`[2H]C([2H])(Oc1nc(N2C[C@H]3CC[C@@H](C2)N3)c2cnc(-c3cc(O)cc4ccc(F)c(C#C)c34)c(F)c2n1)C12CC(=C)CN1C[C@H](F)C2` (stereo partly specified): the IC50 in the assay on NCI-H1299 was more than 5 µM; in the assay with AGS (Homo sapiens, AGS, 120 h), 0.0008 µM; with A549 (Homo sapiens, A549, 120 h), 2.17 µM; in the assay with ASPC1 (Homo sapiens, ASPC1, 120 h), 0.0016 µM.
For `C#Cc1c(F)ccc2cc(O)cc(-c3ncc4c(N5C[C@H]6CC[C@@H](C5)N6)nc(OC[C@]56CCCN5[C@@H](COC(=O)N5CCS(=O)(=O)CC5)CC6)nc4c3F)c12` (racemic), in that order: more than 5 µM, more than 0.05 µM, more than 5 µM and more than 0.05 µM.
For `C#Cc1c(F)ccc2cc(O)cc(-c3ncc4c(N5C[C@H]6CC[C@@H](C5)N6)nc(OC[C@]56CCCN5[C@@H](Cn5cc(CCC#N)nn5)CC6)nc4c3F)c12` (racemic), in that order: more than 5 µM, more than 0.05 µM, more than 5 µM and more than 0.05 µM.
For `[2H]C([2H])(Oc1nc(N2C[C@H]3CC[C@@H](C2)N3)c2cnc(-c3cc(N)cc4cccc(C#C)c34)c(F)c2n1)C12CCCN1CC(=C(F)F)C2` (stereo partly specified), in that order: 2.5 µM, 0.0012 µM, 2.18 µM and 0.002 µM.
For `[2H]C(Oc1nc(N2C[C@H]3CC[C@@H](C2)N3)c2cnc(-c3cc(O)cc4ccc(F)c(C#C)c34)c(F)c2n1)C12CCCN1CC(=C)C2` (stereo partly specified), the IC50 is more than 5 µM with NCI-H1299; 0.0013 µM in the assay on AGS (Homo sapiens, AGS, 120 h); 0.731 µM with A549 (Homo sapiens, A549, 120 h); 0.0021 µM in the assay on ASPC1 (Homo sapiens, ASPC1, 120 h).
For `C#CCN(C)C(=O)OC[C@H]1CC[C@@]2(COc3nc(N4C[C@H]5CC[C@@H](C4)N5)c4cnc(-c5cc(O)cc6ccc(F)c(C#C)c56)c(F)c4n3)CCCN12` (racemic), the IC50 with NCI-H1299 is more than 5 µM; with AGS (ags), 0.0255 µM; in the assay on A549 (a549), 1.76 µM; in the assay on ASPC1 (aspc1) it was 0.0394 µM.
In the case of `[2H]C([2H])(Oc1nc(N2C[C@H]3CC[C@@H](C2)N3)c2cnc(-c3cc(O)cc4ccc(F)c(C#C)c34)c(F)c2n1)C12CC(=C)CN1CC(=C)C2`, the IC50 with NCI-H1299 came out at 2.01 µM; in the assay on AGS (Homo sapiens, AGS, 120 h) it was 0.0004 µM; in the assay on A549 (Homo sapiens, A549, 120 h), 0.559 µM; in the assay on ASPC1 (Homo sapiens, ASPC1, 120 h) it was 0.0013 µM.
For `[2H]C([2H])(Oc1nc(N2C[C@H]3CC[C@@H](C2)N3)c2cnc(-c3cc(O)cc4ccc(F)c(C#C)c34)c(F)c2n1)C12CC(=C)CN1CC1(CC1)C2` (stereo partly specified), in that order: 3.02 µM, 0.0011 µM, 0.944 µM and 0.0039 µM.
As to `C#CCN(C)C(=O)OC[C@@H]1CC[C@]2(COc3nc(N4C[C@H]5CC[C@@H](C4)N5)c4cnc(-c5cc(O)cc6ccc(F)c(C#C)c56)c(F)c4n3)CCCN12`, the half-inhibitory concentration (IC50) with NCI-H1299 is more than 5 µM; in the assay with AGS (Homo sapiens, AGS, 120 h) it was 0.0154 µM; in the assay with A549 (Homo sapiens, A549, 120 h) it was 1.02 µM; in the assay with ASPC1 (Homo sapiens, ASPC1, 120 h), 0.0239 µM.
For `[2H]C1([2H])CCC2(C([2H])([2H])Oc3nc(N4C[C@H]5CC[C@@H](C4)N5)c4cnc(-c5cc(O)cc6ccc(F)c(C#C)c56)c(F)c4n3)CC(=C)CN12` (stereo partly specified), in that order: more than 5 µM, 0.0008 µM, 1.68 µM and 0.002 µM.
For `[2H]C([2H])(Oc1nc(N2C[C@H]3CC[C@@H](C2)N3)c2cnc(-c3cccc4c(F)cc(F)c(C#C)c34)c(F)c2n1)C12CCCN1CC(=C(F)F)C2` (stereo partly specified), in that order: more than 5 µM, more than 0.05 µM, more than 5 µM and more than 0.05 µM.
For `[2H]C([2H])(Oc1nc(N2C[C@H]3CC[C@@H](C2)N3)c2cnc(-c3cc(O)cc4ccc(F)c(C#C)c34)c(F)c2n1)C12CC(=C)CN1CC(=C(F)F)C2` (stereo partly specified), in that order: 1.93 µM, 0.0006 µM, 0.96 µM and 0.0011 µM.
In the case of `C#Cc1c(F)ccc2cc(O)cc(-c3ncc4c(N5C[C@H]6CC[C@@H](C5)N6)nc(OC(C)C56CCCN5CC(=C)C6)nc4c3F)c12` (stereo partly specified), the IC50 is more than 5 µM in the assay with NCI-H1299; more than 0.05 µM in the assay with AGS (Homo sapiens, AGS, 120 h); 4.5 µM in the assay with A549 (Homo sapiens, A549, 120 h); more than 0.05 µM in the assay on ASPC1 (Homo sapiens, ASPC1, 120 h).
Turning to `C#Cc1c(F)ccc2cc(O)cc(-c3ncc4c(N5C[C@H]6CC[C@@H](C5)N6)nc(OCC56CCCN5CC(=C)C6)nc4c3F)c12` (stereo partly specified), the 50% inhibitory concentration (IC50) with NCI-H1299 was more than 5 µM; in the assay with AGS (Homo sapiens, AGS, 120 h), 0.0014 µM; in the assay on A549 (Homo sapiens, A549, 120 h), 2.22 µM; in the assay on ASPC1 (Homo sapiens, ASPC1, 120 h), 0.0046 µM.
For `[2H]C([2H])(Oc1nc(N2C[C@H]3CC[C@@H](C2)N3)c2cnc(-c3cc(O)cc4ccc(F)c(C#C)c34)c(F)c2n1)C12CCCN1CC(=C)C2` (stereo partly specified), in that order: more than 5 µM, 0.0011 µM, 0.948 µM and 0.0038 µM.
For `[2H]C([2H])(Oc1nc(N2C[C@H]3CC[C@@H](C2)N3)c2cnc(-c3c(Cl)c(C)cc4[nH]ncc34)c(F)c2n1)C12CCCN1CC(=C(F)F)C2` (stereo partly specified), in that order: more than 5 µM, more than 0.05 µM, more than 5 µM and more than 0.05 µM.
For `C#Cc1c(F)ccc2cc(O)cc(-c3ncc4c(N5C[C@H]6CC[C@@H](C5)N6)nc(N5C[C@@H]6C[C@H](C5)c5cccc(=O)n5C6)nc4c3F)c12`, in that order: more than 5 µM, more than 0.05 µM, more than 5 µM and more than 0.05 µM.
As for `C#CCN(C)C(=O)OC[C@H]1CC[C@@]2(COc3nc(N4C[C@H]5CC[C@@H](C4)N5)c4cnc(-c5cc(O)cc6ccc(F)c(C#C)c56)c(F)c4n3)CCCN12`, the concentration for half-maximal inhibition (IC50) with AGS (ags) was 0.0593 µM; in the assay with A549 (a549), more than 5 µM; with ASPC1 (aspc1), 0.207 µM.
As for `C#Cc1c(F)ccc2cc(O)cc(-c3ncc4c(N5C[C@H]6CC[C@@H](C5)N6)nc(OC[C@]56CCCN5[C@@H](Cn5cc(C(C)(C)O)nn5)CC6)nc4c3F)c12` (racemic), the IC50 in the assay on NCI-H1299 is more than 5 µM; with AGS (Homo sapiens, AGS, 120 h) it was more than 0.05 µM; in the assay on A549 (Homo sapiens, A549, 120 h), more than 5 µM; in the assay on ASPC1 (Homo sapiens, ASPC1, 120 h) it was more than 0.05 µM.
Regarding `[2H]C([2H])(Oc1nc(NCC23CCCN2CCC3)c2cnc(-c3cc(O)cc4ccc(F)c(C#C)c34)c(F)c2n1)C12CCCN1CC(=C(F)F)C2` (stereo unspecified), the concentration for half-maximal inhibition (IC50) in the assay on NCI-H1299 is more than 5 µM; in the assay with AGS (Homo sapiens, AGS, 120 h), more than 0.05 µM; with A549 (Homo sapiens, A549, 120 h), more than 5 µM; with ASPC1 (Homo sapiens, ASPC1, 120 h) it was more than 0.05 µM.
For the compound `[2H]C([2H])(Oc1nc(N2CCC(N(C)C)C2)c2cnc(-c3cc(O)cc4ccc(F)c(C#C)c34)c(F)c2n1)C12CCCN1CC(=C(F)F)C2` (stereo unspecified), the IC50 with NCI-H1299 was more than 5 µM; in the assay on AGS (Homo sapiens, AGS, 120 h), more than 0.05 µM; with A549 (Homo sapiens, A549, 120 h) it was more than 5 µM; with ASPC1 (Homo sapiens, ASPC1, 120 h), more than 0.05 µM.
Take `[2H]C([2H])(Oc1nc(N2C[C@H]3CC[C@@H](C2)N3C)c2cnc(-c3cc(O)cc4ccc(F)c(C#C)c34)c(F)c2n1)C12CCCN1CC(=C(F)F)C2` (stereo partly specified): the IC50 with NCI-H1299 is more than 5 µM; in the assay on AGS (Homo sapiens, AGS, 120 h) it was more than 0.05 µM; in the assay with A549 (Homo sapiens, A549, 120 h) it was more than 5 µM; in the assay on ASPC1 (Homo sapiens, ASPC1, 120 h) it was more than 0.05 µM.
